From paper PMC7418559, “Synthesis and SAR of Tetracyclic Inhibitors of Protein Kinase CK2 Derived from Furocarbazole W16” (Chemmedchem, 2020)
Read-outs that look alike come from different tables or passages of the source.

How the values were obtained:
[1] = test system: CK2; set-up: method as in PMID 29759799; conditions: cited from earlier work
[2] = target: T1, holoenzyme CK2α2β2 (Homo sapiens, UniProt P68400); test: Capillary electrophoresis (CE) assay, enzyme inhibition of the holoenzyme; assay type: biochemical; conditions: for inhibition at 10 µM: read-out: Inhibition (%) of CK2α2β2
T1 construct: made in house; host or cells: E. coli BL21(DE3)
T1 sequence (P68400 whole entry): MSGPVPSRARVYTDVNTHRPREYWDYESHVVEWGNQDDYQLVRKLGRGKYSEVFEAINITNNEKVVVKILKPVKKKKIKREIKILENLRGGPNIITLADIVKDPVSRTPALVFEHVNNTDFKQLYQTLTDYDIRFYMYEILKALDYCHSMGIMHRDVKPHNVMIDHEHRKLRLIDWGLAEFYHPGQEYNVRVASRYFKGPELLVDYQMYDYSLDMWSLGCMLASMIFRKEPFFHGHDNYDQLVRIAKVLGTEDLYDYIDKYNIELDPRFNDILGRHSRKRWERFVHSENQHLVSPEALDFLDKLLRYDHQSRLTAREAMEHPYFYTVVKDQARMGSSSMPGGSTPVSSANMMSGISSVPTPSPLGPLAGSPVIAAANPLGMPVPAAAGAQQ
Description: (§1) In this assay, the decapeptide […], a known class I substrate suitable for assaying the kinase activity of both the CK2 holoenzyme and the catalytically active CK2 subunits,50, 58 was reacted with ATP in the presence of enzyme, which transfers a phosphate group to Ser7 of the decapeptide. Due to the additional negative charge of the phosphate group, the decapeptide and the phosphorylated decapeptide can be separated by CE.
Enzymatic activities with or without inhibitors were determined for the holoenzyme (CK2α2β2), the CK2α subunit, and the mutated CK2α′ ^C336S subunit by a capillary electrophoresis assay as described before.59 For this purpose, CK2α as well as (CK2α2β2) holoenzyme were purified after recombinant expression in E. coli BL21(DE3) and purified according the protocol of Grankowski et al.62 The mutated CK2α′ ^C336S subunit was purified by Ni‐NTA affinity chromatography using an N‐terminally attached His6 tag. […] For both CK2α subunits an assay buffer containing 100 mM NaCl instead of 60 mM NaCl as for the holoenzyme, and 20 mM MgCl2 instead of 10 mM MgCl2 was applied. For the holoenzyme, 1 μg was added, whereas for CK2α and the mutated CK2α′ ^C336S subunit 0.25 μg was added each. For each compound inhibition was determined three times independently at an initial concentration of 10 μM and the mean value and the standard deviation (SD) were calculated.

[3] = target: T2, CK2α subunit (Homo sapiens, UniProt P68400); test: Capillary electrophoresis (CE) assay, enzyme inhibition of the CK2α subunit; assay type: biochemical; conditions: for inhibition at 10 µM: read-out: Inhibition (%) of CK2α
T2 construct: made in house; host or cells: E. coli BL21(DE3)
T2 sequence (P68400 whole entry): as above
Source text: as §1, with “CE. […] The data on the inhibition of the kinase activities of CK2α2β2, CK2α subunit and mutated CK2α’ ^C336S subunit are summarized in Table 1.” for “CE.”
(§2) Enzymatic activities with or without inhibitors were determined for the holoenzyme (CK2α2β2), the CK2α subunit, and the mutated CK2α′ ^C336S subunit by a capillary electrophoresis assay as described before.59 For this purpose, CK2α as well as (CK2α2β2) holoenzyme were purified after recombinant expression in E. coli BL21(DE3) and purified according the protocol of Grankowski et al.62 The mutated CK2α′ ^C336S subunit was purified by Ni‐NTA affinity chromatography using an N‐terminally attached His6 tag. Successful purification was controlled by SDS‐PAGE. Enzymatic activity was determined in the presence of 60 μM ATP and 114 μM of the substrate peptide […]. For both CK2α subunits an assay buffer containing 100 mM NaCl instead of 60 mM NaCl as for the holoenzyme, and 20 mM MgCl2 instead of 10 mM MgCl2 was applied. For the holoenzyme, 1 μg was added, whereas for CK2α and the mutated CK2α′ ^C336S subunit 0.25 μg was added each. For each compound inhibition was determined three times independently at an initial concentration of 10 μM and the mean value and the standard deviation (SD) were calculated.

[4] = target: T3, mutated CK2α’ ^C336S subunit (Homo sapiens, UniProt P19784, C336S); test: Capillary electrophoresis (CE) assay, enzyme inhibition of the mutated CK2α′ C336S subunit; assay type: biochemical; conditions: c=10 μM, CE assay, mean±SD of three experiments, n.s.=not significant; for inhibition at 10 µM: read-out: Inhibition (%) of CK2α’ ^C336S
T3 construct: His6 (N); made in house
T3 sequence (P19784 1-350 C336S): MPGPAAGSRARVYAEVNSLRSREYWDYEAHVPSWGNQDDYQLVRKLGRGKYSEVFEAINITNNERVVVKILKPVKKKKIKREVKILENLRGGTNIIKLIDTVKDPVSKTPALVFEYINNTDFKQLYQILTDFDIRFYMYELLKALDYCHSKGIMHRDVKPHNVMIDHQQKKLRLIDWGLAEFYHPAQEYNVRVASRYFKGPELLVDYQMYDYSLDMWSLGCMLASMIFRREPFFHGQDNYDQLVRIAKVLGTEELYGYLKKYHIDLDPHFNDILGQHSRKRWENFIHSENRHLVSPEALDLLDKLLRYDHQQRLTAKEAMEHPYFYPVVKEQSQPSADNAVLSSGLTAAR
Source text: as §1, with “CE. […] The data on the inhibition of the kinase activities of CK2α2β2, CK2α subunit and mutated CK2α’ ^C336S subunit are summarized in Table 1.” for “CE.”
as §2

[5] = target: T4, CK2α/CK2β interaction (CK2α^1−335 / fluorescently labeled CK2β^1−193) (Homo sapiens, UniProt P68400)
T4 sequence (P68400 1-335): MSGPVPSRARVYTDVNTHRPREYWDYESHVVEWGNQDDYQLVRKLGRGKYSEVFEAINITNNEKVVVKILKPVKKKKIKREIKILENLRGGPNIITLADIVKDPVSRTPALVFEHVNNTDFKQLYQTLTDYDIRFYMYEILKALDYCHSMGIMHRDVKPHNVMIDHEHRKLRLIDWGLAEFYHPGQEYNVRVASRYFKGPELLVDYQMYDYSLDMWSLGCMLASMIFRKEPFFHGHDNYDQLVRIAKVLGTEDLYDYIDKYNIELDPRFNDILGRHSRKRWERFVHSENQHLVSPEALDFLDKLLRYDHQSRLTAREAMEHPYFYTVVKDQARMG

[6] = test system: CK2α/CK2β interaction; set-up: method as in PMID 18553057; conditions: read-out: IC50, inhibition of CK2α/CK2β interaction (PPII); cited from earlier work
[7] = test system: monomeric CK2α; set-up: method as in PMID 18553057; conditions: read-out: IC50, inhibition of the catalytic activity of monomeric CK2α; cited from earlier work
[8] = c=10 μM, CE assay, mean±SD of three experiments, n.s.=not significant

inhibition at 10 µM [2, 8] [%]	Inhibition (%) of CK2α [3, 8]	inhibition at 10 µM [4] [%]	Ki [5] [µM]	Inhibition (%) of CK2α’ ^C336S [4]	Inhibition (%) of CK2α2β2 [2, 8]	SMILES	further results
						NCc1cc(Cl)cc(-c2cccc3[nH]ccc23)c1 [CAM187]	Inhibition of CK2 activity [1]: did not significantly inhibit CK2 activity
29 ± 14	n.s.	30 ± 23	8.5 ± 2.9			COc1cc([C@@H]2c3c([nH]c4ccccc34)[C@H](C(=O)N3C(=O)OC[C@H]3Cc3ccccc3)[C@@H]3C(=O)N(C)C(=O)[C@H]23)cc(OC)c1OC [(−)‐10 a, (3aR,4R,10R,10aR)‐4‐{[(R)‐4‐Benzyl‐2‐oxo‐1,3‐oxazolidin‐3‐yl]carbonyl}‐2‐methyl‐10‐(3,4,5‐trimethoxyphenyl)‐4,5,10,10a‐tetrahydropyrrolo[3,4‐b]carbazole‐1,3(2H,3aH)‐dione]	
12 ± 7	n.s.		4.9 ± 0.8	n.s.		COc1cc([C@H]2c3c([nH]c4ccccc34)[C@@H](C(=O)N3C(=O)OC[C@H]3Cc3ccccc3)[C@H]3C(=O)NC(=O)[C@@H]23)cc(OC)c1OC [(+)‐9 b, (3aS,4S,10S,10aS)‐4‐{[(R)‐4‐Benzyl‐2‐oxo‐1,3‐oxazolidin‐3‐yl]carbonyl}‐10‐(3,4,5‐trimethoxyphenyl)‐4,5,10,10a‐tetrahydropyrrolo[3,4‐b]carbazole‐1,3(2H,3aH)‐dione]	
	n.s.		3.6 ± 0.6	n.s.	n.s.	COc1cc([C@@H]2c3c([nH]c4ccccc34)[C@H](C(=O)N3C(=O)OC[C@H]3Cc3ccccc3)[C@@H]3C(=O)NC(=O)[C@H]23)cc(OC)c1OC [(−)‐9 a]	
	n.s.		32 ± 17	n.s.	n.s.	CCOC(=O)C1c2[nH]c3ccccc3c2C(c2cc(OC)c(OC)c(OC)c2)C2C(=O)NC(=O)C12 (racemic) [(±)‐11]	
	n.s.		1.8 ± 0.8	n.s.	n.s.	COc1cc([C@@H]2c3c([nH]c4ccccc34)[C@@H](C(=O)O)[C@@H]3C(=O)NC(=O)[C@H]23)cc(OC)c1OC (racemic) [(±)‐12]	
15 ± 11	n.s.		3.7 ± 0.7	n.s.		COc1cc([C@@H]2c3c([nH]c4ccccc34)[C@H](C(=O)N3C(=O)OC[C@@H]3Cc3ccccc3)[C@@H]3C(=O)N(C)C(=O)[C@H]23)cc(OC)c1OC [(−)‐10 b]	
26 ± 7		53 ± 15	2.8 ± 0.9			COc1cc([C@H]2c3c([nH]c4ccccc34)[C@@H](C(=O)N3C(=O)OC[C@@H]3Cc3ccccc3)[C@H]3C(=O)N(C)C(=O)[C@@H]23)cc(OC)c1OC [(+)‐10 a]	inhibition at 10 µM [3, 8]: 41 ± 11%
20 ± 4	n.s.			n.s.		COc1cc([C@H]2c3c([nH]c4ccccc34)[C@@H](C(=O)N3C(=O)OC[C@@H]3Cc3ccccc3)[C@H]3C(=O)NC(=O)[C@@H]23)cc(OC)c1OC [(+)‐9 a]	Inhibition of CK2α/CK2β2 interaction K i ([5]; MST, global fit with K D = […] nM, mean±SEM of 2–4 experiments, prec.=precipitation, n.s.=not significant): n.s.

SMILES	inhibition at 10 µM [2, 8] [%]	Inhibition (%) of CK2α [3, 8]	inhibition at 10 µM [4] [%]	Ki [5] [µM]	Inhibition (%) of CK2α’ ^C336S [4]	Inhibition (%) of CK2α2β2 [2, 8]	further results
COc1cc([C@H]2c3c([nH]c4ccccc34)[C@@H](C(=O)N3C(=O)OC[C@@H]3Cc3ccccc3)[C@H]3C(=O)OC(=O)[C@@H]23)cc(OC)c1OC [(+)‐3 a, (3aR,4S,10S,10aS)‐4‐{[(S)‐4‐Benzyl‐2‐oxo‐1,3‐oxazolidin‐3‐yl]carbonyl}‐10‐(3,4,5‐trimethoxyphenyl)‐4,5,10,10a‐tetrahydrofuro[3,4‐b]carbazole‐1,3(3aH)‐dione]			85 ± 13				IC50 [6]: […]; inhibition at 10 µM [2]: 84 ± 5%; IC50 [7]: 20 µM; inhibition at 10 µM [3]: 76 ± 4%
